This is an account of results in ChEMBL document CHEMBL3286299, “Synthesis and in vitro evaluation of 4-trichloromethylpyrrolo[1,2-a]quinoxalines as new antiplasmodial agents” (Eur J Med Chem, 2014).

Data set [1] is described as follows: Cytotoxicity against human HepG2 cells after 72 hrs by MTT assay. In kind it is cell-based.
The nature of data set [2]: Selectivity index, ratio of CC50 for human HepG2 cells to IC50 for Plasmodium falciparum W2. In kind it is functional.
The next data set deals with Plasmodium falciparum. In words: Antiplasmodial activity against chloroquine-, pyrimethamine- and proguanil-resistant Plasmodium falciparum K1 infected in human erythrocytes after 72 hrs by SYBR Green I fluorescence-based method. It is filed as functional, organism-based. Conditions: K1, 72 h.
A short description of data set [3]: Selectivity index, ratio of CC50 for human HepG2 cells to IC50 for chloroquine-, pyrimethamine- and proguanil-resistant Plasmodium falciparum K1 infected in human erythrocytes. It is filed as functional.

For the compound `ClC(Cl)(Cl)c1nc(-c2ccccc2)c2ccccc2n1`, in data set [1], the CC50 at 72 h was over 125 µM. In data set [2], the “Ratio CC50/IC50” value is over 15.6.

The compound `ClC(Cl)(Cl)c1nccc2ccccc12` gave an IC50 in the data set with Plasmodium falciparum of 8 µM. This compound showed a CC50 at 72 h in data set [1] of 180 µM. Besides, the “Ratio CC50/IC50” value in data set [3] is on record as 22.5.

As for `ClC(Cl)(Cl)c1ncnc2ccccc12`, in the data set with Plasmodium falciparum, the IC50 is over 50 µM. In data set [1], the CC50 at 72 h is over 500 µM.

Compound `ClC(Cl)(Cl)c1ncc2ccccc2n1` showed an IC50 with Plasmodium falciparum of 17.6 µM. This compound also showed a CC50 at 72 h in data set [1] of 61 µM. In addition, the “Ratio CC50/IC50” value in data set [3] was 3.5.

In the data set with Plasmodium falciparum, `Cc1ncc2ccccc2n1` returned an IC50 of over 50 µM. Further, the CC50 at 72 h in data set [1] turned out to be 350 µM. Also, the “Ratio CC50/IC50” value in data set [3] was under 7.

In the case of `ClC(Cl)(Cl)c1cnc2ccccc2n1`, half-maximal inhibition in the data set with Plasmodium falciparum (IC50) was put at 1.5 µM. This compound also gave a CC50 at 72 h in data set [1] of 3.1 µM. In data set [3], the “Ratio CC50/IC50” value is 2.1.

Regarding `Cc1cnc2ccccc2n1`, the IC50 in the data set with Plasmodium falciparum was over 50 µM. Also, the CC50 at 72 h in data set [1] is over 500 µM.

On to `ClC(Cl)c1cnc2ccccc2n1`, for which the IC50 in the data set with Plasmodium falciparum was 12.8 µM. This compound came in with a CC50 at 72 h in data set [1] of 19.3 µM. The “Ratio CC50/IC50” value in data set [3] came out at 1.5.

In the case of `FC(F)(F)c1cnc2ccccc2n1`, the IC50 in the data set with Plasmodium falciparum was over 50 µM. In addition, in data set [1], the CC50 at 72 h is over 500 µM.

The compound `ClC(Cl)(Cl)c1nc2ccccc2nc1-c1ccccc1` showed an IC50 with Plasmodium falciparum of 0.2 µM. The CC50 at 72 h in data set [1] came out at 3.5 µM. Further, the “Ratio CC50/IC50” value in data set [3] is 17.5.

As to `ClC(Cl)(Cl)c1nc2ccccc2n2cccc12`, in the data set with Plasmodium falciparum, half-maximal inhibition (IC50) was put at 1.5 µM. In addition, the cytotoxic concentration (CC50) at 72 h in data set [1] amounted to 41.2 µM. For the same compound, in data set [3], the “Ratio CC50/IC50” value was found to be 27.5.

`Fc1ccc2c(c1)nc(C(Cl)(Cl)Cl)c1cccn12` gave an IC50 in the data set on Plasmodium falciparum of 1.7 µM. The same compound yielded a CC50 at 72 h in data set [1] of over 15 µM. In addition, the “Ratio CC50/IC50” value in data set [3] is given as over 8.8.

The compound `Clc1ccc2c(c1)nc(C(Cl)(Cl)Cl)c1cccn12` gave an IC50 in the data set on Plasmodium falciparum of 1.6 µM. Besides, the CC50 at 72 h in data set [1] came out at 9.8 µM. Moreover, the “Ratio CC50/IC50” value in data set [3] worked out at 6.1.

Regarding `ClC(Cl)(Cl)c1nc2cc(I)ccc2n2cccc12`, the midpoint of inhibition in the data set with Plasmodium falciparum, the IC50, lay at 1.2 µM. Further, the CC50 at 72 h in data set [1] was determined as 6.6 µM. Also, the “Ratio CC50/IC50” value in data set [3] stood at 5.5.

`Cc1ccc2c(c1)nc(C(Cl)(Cl)Cl)c1cccn12` yielded an IC50 with Plasmodium falciparum of 2.4 µM. This compound also gave a cytotoxic concentration (CC50) at 72 h in data set [1] of 53 µM. Further, in data set [3], the “Ratio CC50/IC50” value was found to be 22.1.

`COc1ccc2c(c1)nc(C(Cl)(Cl)Cl)c1cccn12` showed a 50% inhibitory concentration (IC50) with Plasmodium falciparum of 4.2 µM. Moreover, in data set [1], the CC50 at 72 h was 35 µM. Besides, the “Ratio CC50/IC50” value in data set [3] stood at 8.3.

`N#Cc1ccc2c(c1)nc(C(Cl)(Cl)Cl)c1cccn12`: it took 1.5 µM to reach half-maximal inhibition in the data set on Plasmodium falciparum (IC50). For the same compound, the CC50 at 72 h in data set [1] amounted to 17 µM. In addition, the “Ratio CC50/IC50” value in data set [3] is listed as 11.3.

As for `O=C(O)c1ccc2c(c1)nc(C(Cl)(Cl)Cl)c1cccn12`, the half-inhibitory concentration (IC50) in the data set with Plasmodium falciparum was 22 µM. The compound further registered a CC50 at 72 h in data set [1] of 106 µM. The “Ratio CC50/IC50” value in data set [3] is recorded as under 10.6.

Turning to `N/C(=N/O)c1ccc2c(c1)nc(C(Cl)(Cl)Cl)c1cccn12`, it took 1.75 µM to reach half-maximal inhibition in the data set on Plasmodium falciparum (IC50). The compound further came in with a CC50 at 72 h in data set [1] of over 15 µM. In data set [3], the “Ratio CC50/IC50” value is recorded as over 8.6.

For `Cc1nc2ccccc2n2cccc12`, in the data set on Plasmodium falciparum, the IC50 was over 50 µM. The compound further displayed a cytotoxic concentration (CC50) at 72 h in data set [1] of 120 µM. Moreover, the “Ratio CC50/IC50” value in data set [3] is reported as under 2.4.

With `Cc1ccc2c(c1)nc(C)c1cccn12`, in the data set with Plasmodium falciparum, the IC50 is over 50 µM. The same compound came in with a CC50 at 72 h in data set [1] of 57 µM. In data set [3], the “Ratio CC50/IC50” value is recorded as under 4.7.

In the data set on Plasmodium falciparum, `Cc1nc2cc(C#N)ccc2n2cccc12` had an IC50 of over 50 µM. The 50% cytotoxic concentration (CC50) at 72 h in data set [1] is over 31.5 µM.

The compound `FC(F)(F)c1nc2ccccc2n2cccc12` returned an IC50 in the data set on Plasmodium falciparum of over 50 µM. The compound further showed a CC50 at 72 h in data set [1] of 160 µM. The “Ratio CC50/IC50” value in data set [3] is under 3.2.

In the case of `Cc1nccc2ccccc12`, the IC50 in the data set with Plasmodium falciparum was over 50 µM. The same compound displayed a CC50 at 72 h in data set [1] of 179 µM. Besides, the “Ratio CC50/IC50” value in data set [3] was under 3.6.

`C[C@H]1c2cccc(O)c2C(=O)C2=C(O)[C@]3(O)C(=O)C(C(N)=O)=C(O)[C@@H](N(C)C)[C@@H]3[C@@H](O)[C@@H]21.O` [DOXYCYCLINE] came in with an IC50 in the data set with Plasmodium falciparum of 6 µM. The “Ratio CC50/IC50” value in data set [3] is given as 3.3.

As for `Cc1ccc2ccccc2n1` [QUINALDINE], the IC50 in the data set on Plasmodium falciparum was over 50 µM. This compound also returned a CC50 at 72 h in data set [1] of over 500 µM.

In the data set on Plasmodium falciparum, `c1ccc2nccnc2c1` [QUINOXALINE] gave a concentration for half-maximal inhibition (IC50) of over 50 µM. Further, the half-maximal cytotoxic concentration (CC50) at 72 h in data set [1] was over 500 µM.
